In US12108719B2, “Methods for creating doubled haploid plants” (Monsanto Technology LLC, priority 2015, dated 2024):

Test system: diploid maize plant
Assay: Multibud induction, embryo axis method (Example 8)
Assay type: in vivo
Procedure: Seeds of a diploid maize plant were surface sterilized comprising immersion using standard methods of the art and then germinated in vitro in growth media. One of the resulting seedlings was dissected from its seed two days after germination (embryo axis method). The dissected axis was then subjected to a multibud induction treatment comprising transfer to fresh multibud induction media containing cytokinin in the form of 10 mg/L BAP. After seven days in the multibud bud induction media, the treated seedlings were transferred back to a hormone-free regeneration media. […] These multibuds were dissected from the mother plant and transferred to rooting media comprising IBA and IAA. After approximately one week, the multibud-derived plants were transplanted into 10 inch pots and allowed to grow in a greenhouse until it was clear that each autonomously-growing multibud-derived shoot had formed ears and tassels that nicked. Each ear was then pollinated from the tassel growing in the same pot and then all plants were allowed to grow in greenhouse conditions until seed set.

With `c1ccc(CNc2ncnc3nc[nH]c23)cc1` [BAP, 6-Benzylaminopurine] the multibud formation (10 mg/L BAP for seven days, observed after approximately twenty days) was “induced multibuds could be seen growing from the nodal regions of the stem” and the “seed borne by ears of multibud-derived plants” value (10 mg/L BAP multibud induction, self-pollinated multibud-derived plants) was “dozens of seed each”.
